Measurements reported in publication PMC5749554 (Drug Design, Development and Therapy, 2017).

How the values were obtained:
Assay type in all cases: biochemical
Settings in all cases: liver microsomes
[1] = biological target: CYP3A4 (HLM) (Homo sapiens, UniProt P08684); test: cocktail probe-substrate assay, HPLC
[2] = biological target: CYP2E1 (HLM) (Homo sapiens, UniProt P05181); test: cocktail probe-substrate assay, HPLC
[3] = biological target: T1, CYP1A2 (HLM) (Homo sapiens, UniProt P05177); test: cocktail probe-substrate assay, HPLC
T1 sequence (P05177 2-516): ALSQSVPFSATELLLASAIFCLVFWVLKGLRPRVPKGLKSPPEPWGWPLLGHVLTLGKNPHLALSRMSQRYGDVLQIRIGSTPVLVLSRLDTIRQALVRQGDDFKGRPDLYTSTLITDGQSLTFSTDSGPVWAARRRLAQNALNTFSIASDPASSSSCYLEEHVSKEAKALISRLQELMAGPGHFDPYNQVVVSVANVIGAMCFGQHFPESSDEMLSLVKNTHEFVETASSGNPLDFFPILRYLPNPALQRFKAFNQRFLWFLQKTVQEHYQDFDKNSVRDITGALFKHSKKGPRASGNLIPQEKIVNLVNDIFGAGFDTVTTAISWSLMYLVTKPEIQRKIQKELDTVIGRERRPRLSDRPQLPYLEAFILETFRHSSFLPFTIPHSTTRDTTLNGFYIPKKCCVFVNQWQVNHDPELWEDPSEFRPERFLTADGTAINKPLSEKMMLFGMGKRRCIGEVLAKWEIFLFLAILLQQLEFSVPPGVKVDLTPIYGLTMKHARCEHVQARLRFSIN

[4] = biological target: T2, CYP2C9 (HLM) (Homo sapiens, UniProt P11712); test: cocktail probe-substrate assay, HPLC
[5] = biological target: T3, CYP2D6 (HLM) (Homo sapiens, UniProt P10635); test: cocktail probe-substrate assay, HPLC
[6] = biological target: T3, CYP2D6 (HLM); test: HPLC-MS/MS of alpha-hydroxymetoprolol
[7] = biological target: T2, CYP2C9 (HLM); test: HPLC-UV of 4-hydroxytolbutamide

T3 sequence (P10635 whole entry): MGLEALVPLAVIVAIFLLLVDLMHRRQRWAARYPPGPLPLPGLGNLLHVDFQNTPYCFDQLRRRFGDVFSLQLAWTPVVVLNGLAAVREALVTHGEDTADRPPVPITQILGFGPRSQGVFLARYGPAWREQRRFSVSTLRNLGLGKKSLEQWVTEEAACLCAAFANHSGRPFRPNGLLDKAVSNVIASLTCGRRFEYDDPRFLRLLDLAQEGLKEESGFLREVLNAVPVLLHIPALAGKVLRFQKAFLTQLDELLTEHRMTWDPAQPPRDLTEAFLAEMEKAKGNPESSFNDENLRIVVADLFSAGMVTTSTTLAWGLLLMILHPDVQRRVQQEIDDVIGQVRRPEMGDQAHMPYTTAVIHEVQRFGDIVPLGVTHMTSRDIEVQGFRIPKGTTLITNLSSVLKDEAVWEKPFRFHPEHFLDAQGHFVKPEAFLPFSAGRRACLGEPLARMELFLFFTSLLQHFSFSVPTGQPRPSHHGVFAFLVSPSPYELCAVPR
T2 sequence (P11712 whole entry): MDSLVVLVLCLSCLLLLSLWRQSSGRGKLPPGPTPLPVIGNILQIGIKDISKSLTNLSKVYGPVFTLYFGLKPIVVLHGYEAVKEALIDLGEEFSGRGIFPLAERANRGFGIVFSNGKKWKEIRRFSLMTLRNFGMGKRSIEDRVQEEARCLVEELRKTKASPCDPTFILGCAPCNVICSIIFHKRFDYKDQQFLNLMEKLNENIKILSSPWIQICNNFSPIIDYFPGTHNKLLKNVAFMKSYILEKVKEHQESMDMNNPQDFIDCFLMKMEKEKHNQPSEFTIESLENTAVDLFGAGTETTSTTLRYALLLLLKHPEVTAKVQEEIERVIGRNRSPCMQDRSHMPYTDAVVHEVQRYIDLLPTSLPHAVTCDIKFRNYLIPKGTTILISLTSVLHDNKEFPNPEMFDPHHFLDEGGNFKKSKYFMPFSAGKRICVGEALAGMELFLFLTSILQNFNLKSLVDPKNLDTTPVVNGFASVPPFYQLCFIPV
CYP3A4 (HLM), sequence (P08684 2-503): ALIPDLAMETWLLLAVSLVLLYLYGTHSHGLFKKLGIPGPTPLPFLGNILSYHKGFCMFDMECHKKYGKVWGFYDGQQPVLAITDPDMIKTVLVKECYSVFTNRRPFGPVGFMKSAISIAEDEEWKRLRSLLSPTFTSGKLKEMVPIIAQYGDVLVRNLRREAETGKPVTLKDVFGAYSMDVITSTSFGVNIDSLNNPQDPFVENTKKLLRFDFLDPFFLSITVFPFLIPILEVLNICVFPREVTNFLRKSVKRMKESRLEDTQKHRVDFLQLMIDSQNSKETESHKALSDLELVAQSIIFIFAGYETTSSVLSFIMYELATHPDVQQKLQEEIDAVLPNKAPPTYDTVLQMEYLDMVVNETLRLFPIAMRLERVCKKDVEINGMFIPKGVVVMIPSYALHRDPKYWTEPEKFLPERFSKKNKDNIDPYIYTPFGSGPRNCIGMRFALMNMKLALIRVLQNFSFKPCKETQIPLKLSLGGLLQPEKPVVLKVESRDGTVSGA
CYP2E1 (HLM), sequence (P05181 whole entry): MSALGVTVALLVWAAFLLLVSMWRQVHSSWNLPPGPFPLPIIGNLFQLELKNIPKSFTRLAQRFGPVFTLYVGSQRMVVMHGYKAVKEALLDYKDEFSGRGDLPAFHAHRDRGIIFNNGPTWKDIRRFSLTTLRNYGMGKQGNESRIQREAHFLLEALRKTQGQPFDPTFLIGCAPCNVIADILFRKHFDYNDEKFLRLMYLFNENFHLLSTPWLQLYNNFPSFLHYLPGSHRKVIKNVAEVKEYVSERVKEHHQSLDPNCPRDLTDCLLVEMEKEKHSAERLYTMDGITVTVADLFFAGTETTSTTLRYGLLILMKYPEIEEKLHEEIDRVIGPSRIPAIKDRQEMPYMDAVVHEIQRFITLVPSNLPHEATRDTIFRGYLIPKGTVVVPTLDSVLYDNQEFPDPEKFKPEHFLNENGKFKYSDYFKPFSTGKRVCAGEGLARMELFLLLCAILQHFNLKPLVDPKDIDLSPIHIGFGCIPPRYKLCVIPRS

IC50 [1]: 81.5 µM
IC50 [2]: 66.3 µM
IC50 [3]: > 100 µM
IC50 [4]: 8.18 µM
IC50 [5]: 11.9 µM
Ki [6]: 25.4 µM
Ki [7]: 5.64 µM
SMILES: COc1cc2c(cc1OC)-c1cc3ccc4c(c3c[n+]1CC2)OCO4 [Epiberberine]
